We go through 4 compounds from PMC5318275 (Chemical research in toxicology, 2017).

Read-outs that look alike come from different tables or passages of the source.

For one test, the target named is hMT2. The following applies: read-out: Ki hMT2; competition for 2-[125I]-iodomelatonin (300 pM); cited from earlier work.
Another test has as its target hMT1. The following applies: read-out: Ki hMT1; competition for 2-[125I]-iodomelatonin (300 pM); cited from earlier work.
For test [1], the target named is T1, hMT2 melatonin receptor (Homo sapiens, UniProt P49286).
T1 sequence (P49286 1-362): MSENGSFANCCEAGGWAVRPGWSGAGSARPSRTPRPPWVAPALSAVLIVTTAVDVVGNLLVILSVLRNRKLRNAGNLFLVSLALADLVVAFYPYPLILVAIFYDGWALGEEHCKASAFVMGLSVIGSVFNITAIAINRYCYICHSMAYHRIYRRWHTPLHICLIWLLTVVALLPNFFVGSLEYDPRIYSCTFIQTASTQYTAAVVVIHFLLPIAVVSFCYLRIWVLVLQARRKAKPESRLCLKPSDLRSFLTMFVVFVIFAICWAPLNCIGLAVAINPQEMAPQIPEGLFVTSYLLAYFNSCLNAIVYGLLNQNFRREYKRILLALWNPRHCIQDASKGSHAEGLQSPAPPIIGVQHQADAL
Description: biochemical. Particulars: for ratio KiGTP/KiControl, human MT2: 100 μM GTP vs control; for ratio KiGTP/KiControl, human MT2 / Ki: mean ± SEM; for apparent intrinsic efficacy at hMT2 from GTP shift: classified by KiGTP/KiControl: agonists >1, antagonists =1, inverse agonists <1; for Ki: human MT2 Ki value, 25 °C, 1 h. It counts as binding.

A further test deals with serotonin levels. Particulars: single oral dose 60 mg/kg; cited from earlier work.
Test [2] deals with T2, hMT1 melatonin receptor (Homo sapiens, UniProt P48039). As to the kind of experiment: biochemical. It counts as binding.
T2 sequence (P48039 whole entry): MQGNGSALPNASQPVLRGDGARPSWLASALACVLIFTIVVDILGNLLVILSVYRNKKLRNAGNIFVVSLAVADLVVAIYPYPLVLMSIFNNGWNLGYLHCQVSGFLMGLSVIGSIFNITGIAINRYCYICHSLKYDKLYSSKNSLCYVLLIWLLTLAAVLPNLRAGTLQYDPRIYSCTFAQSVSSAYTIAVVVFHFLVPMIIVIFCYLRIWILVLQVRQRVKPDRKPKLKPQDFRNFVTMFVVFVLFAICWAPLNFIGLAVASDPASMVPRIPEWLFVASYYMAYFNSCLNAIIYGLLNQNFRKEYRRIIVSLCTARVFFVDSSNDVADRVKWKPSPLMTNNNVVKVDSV
Test [3] concerns the target T1, hMT2 melatonin receptor. Description: biochemical. It counts as binding. Particulars: for fold higher affinity for hMT2 than for hMT1: competition with 2-[125I]-iodomelatonin binding; for ratio MT1/MT2 (KiMT1/KiMT2): fold difference in affinity between hMT1 and hMT2.
Test [4] deals with T2, hMT1 melatonin receptor. Description: biochemical. Particulars: for ratio KiGTP/KiControl, human MT1: 100 μM GTP vs control; for ratio KiGTP/KiControl, human MT1 / Ki: mean ± SEM; for apparent intrinsic efficacy at hMT1 from GTP shift: classified by KiGTP/KiControl: agonists >1, antagonists =1, inverse agonists <1; for Ki: human MT1 Ki value, 25 °C, 1 h. It counts as binding.

For orientation: Ki means a measure of affinity in units of concentration, obtained from inhibition or displacement. `CCC(=O)NC1Cc2ccccc2C(c2ccccc2)C1` (centres unmarked) [4P-PDOT]: the Ki on hMT2 was 0.00041 µM; on hMT1, 0.658 µM.
Regarding `CNC(=O)Oc1cccc2ccccc12` [carbaryl, 1-naphthyl methylcarbamate], the “ratio KiGTP/KiControl, human MT2” value on hMT2 melatonin receptor [1] is recorded as 4.82 ± 0.82. Further, the “apparent intrinsic efficacy at hMT2 from GTP shift” value on hMT2 melatonin receptor [1] is listed as “agonist”. The Ki was found to be 0.31 ± 0.03 µM on hMT2 melatonin receptor [1] (GTP, presence of 100 μM GTP); 0.07 ± 0.005 µM at hMT2 melatonin receptor [1] (control, absence of GTP); 2.33 µM on hMT1 melatonin receptor [2] (affinity at hMT1, text of discussion, equals the Table 2 control value); 0.07 ± 0.01 µM at hMT2 melatonin receptor [3]; 1.21 ± 0.11 µM on hMT1 melatonin receptor [4] (GTP, presence of 100 μM GTP); 2.33 ± 0.53 µM on hMT1 melatonin receptor [4] (control, absence of GTP). Further, the levels of serotonin entry with serotonin levels is given as “increased”. The “fold higher affinity for hMT2 than for hMT1” value at hMT2 melatonin receptor [3] worked out at 33 fold. On hMT2 melatonin receptor [3], the “ratio MT1/MT2 (KiMT1/KiMT2)” value stood at 32.4. The “ratio KiGTP/KiControl, human MT1” value at hMT1 melatonin receptor [4] came to 0.65 ± 0.16. In addition, the “apparent intrinsic efficacy at hMT1 from GTP shift” value at hMT1 melatonin receptor [4] is “antagonist/inverse agonist”.
In the case of `CNC(=O)Oc1cccc2c1OC(C)(C)C2` [carbofuran, 2,3-dihydro-2,2-dimethyl-7-benzofuranyl methylcarbamate], the “ratio KiGTP/KiControl, human MT2” value at hMT2 melatonin receptor [1] was found to be 10.8 ± 4.2. The “apparent intrinsic efficacy at hMT2 from GTP shift” value at hMT2 melatonin receptor [1] is “agonist efficacy”. Besides, the Ki is 12.1 ± 2.63 µM on hMT2 melatonin receptor [1] (GTP, presence of 100 μM GTP); 1.67 ± 0.39 µM at hMT2 melatonin receptor [1] (control, absence of GTP); 58.5 ± 8.25 µM on hMT1 melatonin receptor [2]; 1.68 ± 0.24 µM at hMT2 melatonin receptor [3]; 29.9 ± 8.6 µM at hMT1 melatonin receptor [4] (GTP, presence of 100 μM GTP); 63.5 ± 12.5 µM on hMT1 melatonin receptor [4] (control, absence of GTP). The “fold higher affinity for hMT2 than for hMT1” value on hMT2 melatonin receptor [3] came to 35 fold. Moreover, at hMT2 melatonin receptor [3], the “ratio MT1/MT2 (KiMT1/KiMT2)” value was found to be 34.8. At hMT1 melatonin receptor [4], the “ratio KiGTP/KiControl, human MT1” value is listed as 0.59 ± 0.24. Also, the “apparent intrinsic efficacy at hMT1 from GTP shift” value on hMT1 melatonin receptor [4] is on record as “antagonist/inverse agonist”.
As for `CC(=O)NCCc1c(Cc2ccccc2)[nH]c2ccccc12` [luzindole], the Ki on hMT2 was 0.0073 µM; at hMT1, 0.179 µM.
